Substitutions are numbered along the chain they refer to. “Also recorded” adds a separate entry of the source.
Tests used:
Test in all cases: yeast liquid growth assay
Type in all cases: cell-based
hA1AR L134F^4.52 = target: T1, hA1AR L134F^4.52 (Homo sapiens, UniProt P30542, L134F); details: result in words
T1 sequence (P30542 1-326 L134F): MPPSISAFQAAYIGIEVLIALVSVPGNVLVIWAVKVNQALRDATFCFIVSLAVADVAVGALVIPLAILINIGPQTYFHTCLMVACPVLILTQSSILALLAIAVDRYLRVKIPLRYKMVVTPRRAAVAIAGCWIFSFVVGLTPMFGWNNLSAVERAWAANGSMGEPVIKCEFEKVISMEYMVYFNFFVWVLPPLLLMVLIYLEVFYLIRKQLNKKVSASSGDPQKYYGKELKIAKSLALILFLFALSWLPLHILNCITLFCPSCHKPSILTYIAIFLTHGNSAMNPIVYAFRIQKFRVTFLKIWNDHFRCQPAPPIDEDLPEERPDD
Protocol: (§1) The plasmids, pDT-PGK_hA1AR, containing either wild type or mutated hA1AR were transformed into a MMY24 S. cerevisiae strain following the lithium acetate procedure.
(§2) In order to characterize the mutant hA1ARs, liquid growth assays in 96-well plates were performed to obtain concentration–growth curves as previously described. […] The overnight cultures were then diluted to 40,000 cells/mL (OD600 ≈ 0.02) in a selective medium without uracil, leucine, and histidine (YNB-ULH). For the determination of constitutive activity, 50 μL of yeast cells and 150 μL of YNB-ULH medium containing different concentrations of 3-AT and 0.8 IU/mL ADA were then added to each well. To obtain concentration–growth curves, 2 μL of various concentrations of ligands, 50 μL of yeast cells, and 150 μL of YNB-ULH medium containing 7 mM 3-AT and 0.8 IU/mL ADA were then added to each well. After incubation at 30 °C for 35 h in a Genios plate reader (TECAN, Zürich, Switzerland) with shaking for 1 min at 300 rpm every 10 min, the optical density was measured at a wavelength of 595 nm, which represented the level of yeast cell growth.
(§3) All experimental data were analyzed by GraphPad Prism 7.0 or 8.0 (GraphPad Software Inc., San Diego, CA, USA). Data from yeast liquid growth and [^35S]GTPγS binding assays were analyzed by non-linear regression using “log (agonist) vs. response (three parameters)” or “log (inhibitor) vs. response (three parameters)” to obtain potency (EC50), inhibitory potency (IC50), and efficacy (Emax or Imax) values. The radioligand displacement curves were obtained from a statistically preferred one-site or two-site binding model. pKi values were calculated from pIC50 values using the Cheng–Prusoff equation, where KD values were obtained from the homologous competition assays from this study and calculated by non-linear regression using “one site–homologous” [62].

wild type hA1AR = target: T2, wild type hA1AR (Homo sapiens, UniProt P30542); details: ratio over basal activity of wild type hA1AR, 7 mM 3-AT
T2 sequence (P30542 1-326): T1 sequence (P30542 1-326 L134F) with F134L
Protocol: as §1, §2, §3

hA1AR R122Q^4.40 = target: T3, hA1AR R122Q^4.40 (Homo sapiens, UniProt P30542, R122Q); details: ratio over basal activity of wild type hA1AR, 7 mM 3-AT
T3 construct: expressed in transfected cells; host or cells: S. cerevisiae MMY24
T3 sequence (P30542 1-326 R122Q): T1 sequence (P30542 1-326 L134F) with R122Q, F134L
Protocol: as §1, §2, §3

hA1AR G279S^7.44 = target: T4, hA1AR G279S^7.44 (Homo sapiens, UniProt P30542, G279S); details: ratio over basal activity of wild type hA1AR, 7 mM 3-AT
T4 sequence (P30542 1-326 G279S): T1 sequence (P30542 1-326 L134F) with F134L, G279S
Protocol: as §1, §2, §3

hA1AR S267I^7.32 = target: T5, hA1AR S267I^7.32 (Homo sapiens, UniProt P30542, S267I); details: result in words
T5 construct: expressed in transfected cells; host or cells: S. cerevisiae MMY24
T5 sequence (P30542 1-326 S267I): T1 sequence (P30542 1-326 L134F) with F134L, S267I
Protocol: as §1, §2, §3

hA1AR D55V^2.50 = target: T6, hA1AR D55V^2.50 (Homo sapiens, UniProt P30542, D55V); details: result in words
T6 construct: expressed in transfected cells; host or cells: S. cerevisiae MMY24
T6 sequence (P30542 1-326 D55V): T1 sequence (P30542 1-326 L134F) with D55V, F134L
Protocol: as §1, §2, §3

OC[C@H]1O[C@@H](n2cnc3c(NC4CCCC4)ncnc32)[C@H](O)[C@@H]1O [CPA, N^6-cyclopentyladenosine]
agonist-induced receptor activation (hA1AR L134F^4.52): could not be activated | Emax (wild type hA1AR): 4.83 ± 0.30 | Emax (hA1AR R122Q^4.40): 4.67 ± 0.22 | Emax (hA1AR G279S^7.44): 4.96 ± 0.38 | agonist-induced receptor activation (hA1AR S267I^7.32): could not be activated; also recorded: complete loss of activation | agonist-induced receptor activation (hA1AR D55V^2.50): could not be activated

From PMC9229843, “Cancer-Related Somatic Mutations in Transmembrane Helices Alter Adenosine A1 Receptor Pharmacology” (Molecules, 2022)
